Assay results reported in ChEMBL document CHEMBL5033997, “Macrolide Inspired Macrocycles as Modulators of the IL-17A/IL-17RA Interaction” (J Med Chem, 2021).

Assay: Inhibition of recombinant human IL-17A/IL-17AR protein-protein interaction using TMB substrate compound added on IL17A precoated plate and followed by IL-17AR addition by ELISA

| SMILES | IC50 [nM] |
| --- | --- |
| CO[C@]1(C)C[C@H](O[C@H]2[C@H](C)[C@@H](O[C@@H]3O[C@H](C)C[C@H](N(C)C)[C@H]3O)[C@](C)(O)C[C@@H](C)CN(C)C(=O)C[C@@H](Cc3ccc(NC(=O)[C@H](Cc4ccccc4Cl)NC(=O)C(O)c4ccccc4)cc3)NC(=O)[C@H](C(C)C)NC(=O)[C@@H]2C)O[C@@H](C)[C@@H]1O (some centres not stated) | 1190 |
| COc1ccc(C(=O)N[C@@H](Cc2ccccc2Cl)C(=O)Nc2ccc(C[C@@H]3CC(=O)N(C)C[C@H](C)C[C@@](C)(O)[C@H](O[C@@H]4O[C@H](C)C[C@H](N(C)C)[C@H]4O)[C@@H](C)[C@H](O[C@H]4C[C@@](C)(OC)[C@@H](O)[C@H](C)O4)[C@@H](C)C(=O)N[C@@H](C(C)C)C(=O)N3)cc2)cc1 | 397 |
| CO[C@]1(C)C[C@H](O[C@H]2[C@H](C)[C@@H](O[C@@H]3O[C@H](C)C[C@H](N(C)C)[C@H]3O)[C@](C)(O)C[C@@H](C)CN(C)C(=O)C[C@@H](Cc3ccc(NC(=O)[C@H](Cc4ccccc4Cl)NC(=O)Cc4ccccc4)cc3)NC(=O)[C@@H](C)NC(=O)[C@@H]2C)O[C@@H](C)[C@@H]1O | > 30000 |
| CO[C@]1(C)C[C@H](O[C@H]2[C@H](C)[C@@H](O[C@@H]3O[C@H](C)C[C@H](N(C)C)[C@H]3O)[C@](C)(O)C[C@@H](C)CN(C)C(=O)C[C@@H](Cc3ccc(NC(=O)[C@H](Cc4ccccc4F)NC(=O)Cc4ccccc4)cc3)NC(=O)[C@H](C(C)C)NC(=O)[C@@H]2C)O[C@@H](C)[C@@H]1O | 315 |
| COc1ccc(C2(C(=O)N[C@@H](Cc3ccccc3Cl)C(=O)Nc3ccc(C[C@@H]4CC(=O)N(C)C[C@H](C)C[C@@](C)(O)[C@H](O[C@@H]5O[C@H](C)C[C@H](N(C)C)[C@H]5O)[C@@H](C)[C@H](O[C@H]5C[C@@](C)(OC)[C@@H](O)[C@H](C)O5)[C@@H](C)C(=O)N[C@@H](C(C)C)C(=O)N4)cc3)CC2)cc1 | 5390 |
| CO[C@]1(C)C[C@H](O[C@H]2[C@H](C)[C@@H](O[C@@H]3O[C@H](C)C[C@H](N(C)C)[C@H]3O)[C@](C)(O)C[C@@H](C)CN(C)C(=O)C[C@@H](Cc3ccc(NC(=O)[C@H](Cc4ccccc4Cl)NC(=O)Cc4ccccc4)cc3)NC(=O)[C@H](C(C)(C)C)NC(=O)[C@@H]2C)O[C@@H](C)[C@@H]1O | 1600 |
| CO[C@]1(C)C[C@H](O[C@H]2[C@H](C)[C@@H](O[C@@H]3O[C@H](C)C[C@H](N(C)C)[C@H]3O)[C@](C)(O)C[C@@H](C)CN(C)C(=O)C[C@@H](Cc3ccc(NC(=O)[C@H](Cc4ccccc4Cl)NC(=O)Cc4ccccc4)cc3)NC(=O)[C@@H](C(C)C)CNC(=O)[C@@H]2C)O[C@@H](C)[C@@H]1O | 24800 |
| CO[C@]1(C)C[C@H](O[C@H]2[C@H](C)[C@@H](O[C@@H]3O[C@H](C)C[C@H](N(C)C)[C@H]3O)[C@](C)(O)C[C@@H](C)CN(C)C(=O)C[C@@H](Cc3ccc(NC(=O)[C@H](Cc4ccccc4Cl)NC(=O)Cc4ccccc4)cc3)NC(=O)C[C@H](C(C)C)NC(=O)[C@@H]2C)O[C@@H](C)[C@@H]1O | > 30000 |
| CO[C@]1(C)C[C@H](O[C@H]2[C@H](C)[C@@H](O[C@@H]3O[C@H](C)C[C@H](N(C)C)[C@H]3O)[C@](C)(O)C[C@@H](C)CN(C)C(=O)C[C@@H](Cc3ccc(NC(=O)[C@H](Cc4ccccc4Cl)NC(=O)Cc4ccc(C#N)cc4)cc3)NC(=O)[C@H](C(C)C)NC(=O)[C@@H]2C)O[C@@H](C)[C@@H]1O | 303 |
| CO[C@]1(C)C[C@H](O[C@H]2[C@H](C)[C@@H](O[C@@H]3O[C@H](C)C[C@H](N(C)C)[C@H]3O)[C@](C)(O)C[C@@H](C)CN(C)C(=O)[C@@H](Cc3ccc(NC(=O)[C@H](Cc4ccccc4Cl)NC(=O)Cc4ccccc4)cc3)NC(=O)C[C@H](C(C)C)NC(=O)[C@@H]2C)O[C@@H](C)[C@@H]1O | > 30000 |
| CO[C@]1(C)C[C@H](O[C@H]2[C@H](C)[C@@H](O[C@@H]3O[C@H](C)C[C@H](N(C)C)[C@H]3O)[C@](C)(O)C[C@@H](C)CN(C)C(=O)C[C@@H](Cc3ccc(NC(=O)[C@H](Cc4ccccc4Cl)NC(=O)Cc4ccccc4)cc3)NC(=O)CCNC(=O)[C@@H]2C)O[C@@H](C)[C@@H]1O | > 30000 |
| CO[C@]1(C)C[C@H](O[C@H]2[C@H](C)[C@@H](O[C@@H]3O[C@H](C)C[C@H](N(C)C)[C@H]3O)[C@](C)(O)C[C@@H](C)CN(C)C(=O)C[C@@H](Cc3ccc(NC(=O)[C@H](Cc4ccccc4Cl)NC(=O)Cc4cccc(S(C)(=O)=O)c4)cc3)NC(=O)[C@H](C(C)C)NC(=O)[C@@H]2C)O[C@@H](C)[C@@H]1O | 1600 |

Next, values leading:

| IC50 [nM] | SMILES |
| --- | --- |
| > 30000 | CO[C@]1(C)C[C@H](O[C@H]2[C@H](C)[C@@H](O[C@@H]3O[C@H](C)C[C@H](N(C)C)[C@H]3O)[C@](C)(O)C[C@@H](C)CN(C)C(=O)[C@@H](Cc3ccc(NC(=O)[C@H](Cc4ccccc4Cl)NC(=O)Cc4ccccc4)cc3)NC(=O)[C@@H](C(C)C)CNC(=O)[C@@H]2C)O[C@@H](C)[C@@H]1O |
| 323 | CO[C@]1(C)C[C@H](O[C@H]2[C@H](C)[C@@H](O[C@@H]3O[C@H](C)C[C@H](N(C)C)[C@H]3O)[C@](C)(O)C[C@@H](C)CN(C)C(=O)C[C@@H](Cc3ccc(NC(=O)[C@H](Cc4ccccc4Cl)NC(=O)Nc4ccc(F)cc4)cc3)NC(=O)[C@H](C(C)C)NC(=O)[C@@H]2C)O[C@@H](C)[C@@H]1O |
| 77 | CO[C@]1(C)C[C@H](O[C@H]2[C@H](C)[C@@H](O[C@@H]3O[C@H](C)C[C@H](N(C)C)[C@H]3O)[C@](C)(O)C[C@@H](C)CN(C)C(=O)C[C@@H](Cc3ccc(NC(=O)[C@H](Cc4ccccc4Cl)NC(=O)Cc4cccc(C)c4)cc3)NC(=O)[C@H](C(C)C)NC(=O)[C@@H]2C)O[C@@H](C)[C@@H]1O |
| 320 | CO[C@]1(C)C[C@H](O[C@H]2[C@H](C)[C@@H](O[C@@H]3O[C@H](C)C[C@H](N(C)C)[C@H]3O)[C@](C)(O)C[C@@H](C)CN(C)C(=O)C[C@@H](Cc3ccc(NC(=O)[C@H](Cc4ccccc4Cl)NC(=O)c4ccccc4)cc3)NC(=O)[C@H](C(C)C)NC(=O)[C@@H]2C)O[C@@H](C)[C@@H]1O |
| > 10000 | CO[C@]1(C)C[C@H](O[C@H]2[C@H](C)[C@@H](O[C@@H]3O[C@H](C)C[C@H](N(C)C)[C@H]3O)[C@](C)(O)C[C@@H](C)CN(C)C(=O)C[C@@H](Cc3ccc(NC(=O)[C@H](Cc4ccccc4Cl)NC(=O)Cc4ccc(C(=O)O)cc4)cc3)NC(=O)[C@H](C(C)C)NC(=O)[C@@H]2C)O[C@@H](C)[C@@H]1O |
| > 30000 | CO[C@]1(C)C[C@H](O[C@H]2[C@H](C)[C@@H](O[C@@H]3O[C@H](C)C[C@H](N(C)C)[C@H]3O)[C@](C)(O)C[C@@H](C)CN(C)C(=O)C[C@@H](Cc3ccc(NC(=O)[C@H](Cc4ccccc4Cl)NC(=O)Cc4ccccc4)cc3)NC(=O)[C@@H]3CCCN3C(=O)[C@@H]2C)O[C@@H](C)[C@@H]1O |
| 1090 | CO[C@]1(C)C[C@H](O[C@H]2[C@H](C)[C@@H](O[C@@H]3O[C@H](C)C[C@H](N(C)C)[C@H]3O)[C@](C)(O)C[C@@H](C)CN(C)C(=O)C[C@@H](Cc3ccc(NC(=O)[C@H](Cc4ccccc4Cl)NC(=O)COc4ccccc4)cc3)NC(=O)[C@H](C(C)C)NC(=O)[C@@H]2C)O[C@@H](C)[C@@H]1O |
| 2900 | CO[C@]1(C)C[C@H](O[C@H]2[C@H](C)[C@@H](O[C@@H]3O[C@H](C)C[C@H](N(C)C)[C@H]3O)[C@](C)(O)C[C@@H](C)CN(C)C(=O)C[C@@H](Cc3ccc(NC(=O)[C@H](Cc4ccccc4Cl)NC(=O)Cc4ccccc4)cc3)NC(=O)[C@H](C(C)C)CNC(=O)[C@@H]2C)O[C@@H](C)[C@@H]1O |
| 573 | CO[C@]1(C)C[C@H](O[C@H]2[C@H](C)[C@@H](O[C@@H]3O[C@H](C)C[C@H](N(C)C)[C@H]3O)[C@](C)(O)C[C@@H](C)CN(C)C(=O)C[C@@H](Cc3ccc(NC(=O)[C@H](Cc4ccccc4Cl)NC(=O)Cc4ccc(F)cc4)cc3)NC(=O)[C@H](C(C)C)NC(=O)[C@@H]2C)O[C@@H](C)[C@@H]1O |
| 471 | CO[C@]1(C)C[C@H](O[C@H]2[C@H](C)[C@@H](O[C@@H]3O[C@H](C)C[C@H](N(C)C)[C@H]3O)[C@](C)(O)C[C@@H](C)CN(C)C(=O)C[C@@H](Cc3ccc(NC(=O)[C@H](Cc4ccccc4Cl)NC(=O)Cc4cccc(C#N)c4)cc3)NC(=O)[C@H](C(C)C)NC(=O)[C@@H]2C)O[C@@H](C)[C@@H]1O |
| 166 | CO[C@]1(C)C[C@H](O[C@H]2[C@H](C)[C@@H](O[C@@H]3O[C@H](C)C[C@H](N(C)C)[C@H]3O)[C@](C)(O)C[C@@H](C)CN(C)C(=O)C[C@@H](Cc3ccc(NC(=O)[C@H](Cc4c(Cl)cccc4Cl)NC(=O)Cc4ccccc4)cc3)NC(=O)[C@H](C(C)C)NC(=O)[C@@H]2C)O[C@@H](C)[C@@H]1O |
| 5900 | CO[C@]1(C)C[C@H](O[C@H]2[C@H](C)[C@@H](O[C@@H]3O[C@H](C)C[C@H](N(C)C)[C@H]3O)[C@](C)(O)C[C@@H](C)CN(C)C(=O)C[C@@H](Cc3ccc(NC(=O)[C@H](Cc4ccccc4Cl)NC(=O)Cc4ccccc4)cc3)NC(=O)[C@@H]3CCC[C@H]3NC(=O)[C@@H]2C)O[C@@H](C)[C@@H]1O |
| 1400 | CO[C@]1(C)C[C@H](O[C@H]2[C@H](C)[C@@H](O[C@@H]3O[C@H](C)C[C@H](N(C)C)[C@H]3O)[C@](C)(O)C[C@@H](C)CN(C)C(=O)[C@H](Cc3ccc(NC(=O)[C@H](Cc4ccccc4Cl)NC(=O)Cc4ccccc4)cc3)NC(=O)[C@@H](C(C)C)NC(=O)[C@@H]2C)O[C@@H](C)[C@@H]1O |
| > 30000 | CO[C@]1(C)C[C@H](O[C@H]2[C@H](C)[C@@H](O[C@@H]3O[C@H](C)C[C@H](N(C)C)[C@H]3O)[C@](C)(O)C[C@@H](C)CN(C)C(=O)[C@@H](Cc3ccc(NC(=O)[C@H](Cc4ccccc4Cl)NC(=O)Cc4ccccc4)cc3)NC(=O)C[C@@H](C(C)C)NC(=O)[C@@H]2C)O[C@@H](C)[C@@H]1O |
| 6760 | CO[C@]1(C)C[C@H](O[C@H]2[C@H](C)[C@@H](O[C@@H]3O[C@H](C)C[C@H](N(C)C)[C@H]3O)[C@](C)(O)C[C@@H](C)CN(C)C(=O)C[C@@H](Cc3ccc(NC(=O)[C@H](Cc4ccccc4Cl)NC(=O)Cc4ccccc4)cc3)NC(=O)CC3(CCCC3)CNC(=O)[C@@H]2C)O[C@@H](C)[C@@H]1O |
